Reference: PMC3472974, “The Bite of the Honeybee: 2-Heptanone Secreted from Honeybee Mandibles during a Bite Acts as a Local Anaesthetic in Insects and Mammals” (PLoS ONE, 2012)
Like-named read-outs stand apart in the source and are kept apart here.

Columns and labels:
honeybees = tested on: honeybees; set-up: method as in earlier work; settings: cited from earlier work
wax moth larvae (WML) = assay: GC-MS quantification of 2-H in wax moth larvae bitten by honeybees; type: in vivo, Galleria mellonella; settings: extracted after full recovery, n = 10
Excerpt: We measured the 2-H content of the following types of samples: a) isolated honeybee mandibular glands (n = 30); b) wax moth larvae (WML; body weight of around 0.01 g) that had been bitten by honeybees (n = 30) –2-H extracted immediately after paralysis; c) WML that had been bitten by honeybees (n = 10) –2-H extracted after full recovery; d) non-bitten WML (controls, n = 10).
To optimize the detection of 2-H, all samples were 1) treated with liquid nitrogen in order to stop any enzymatic process and ensure complete lyses of cell walls and then 2) extracted with ethanol. The extracts were centrifuged, filtered, and stored at −20°C until analysis.
Chromatographic analyses were carried out on a Hewlett Packard 6890 gas chromatographic model hyphenated to a Hewlett Packard 5973 mass selective detector using electron impact (70 eV) as the ionization source, further equipped with an Agilent 6890 autosampler. An HP 5MS (30 m×0.25 mm; film thickness 0.25 µm) column was used for the separations. Helium was used as the carrier gas (flow 0.8 ml/min). […] Thus, under the above chromatographic conditions, the Rt of 2-H was 8.47 min and the ions monitored at EI (70eV, full scan) were m/z 43, 58, 71, 85, 99 and 114. Quantification, however, was performed at Selected Ion Monitoring (SIM) mode and the ions were monitored at m/z 58 and 71. […]

hNav1.2 channels = target: T1, hNav1.2 channels (Homo sapiens, UniProt Q99250); assay: Patch-clamp (PatchXpress 7000A) on transfected CHO cells, hNav1.2; type: cell-based; settings: for IC50: CHO cells, n = 6, mean ± SEM, 2-H exposure limited to 3 min; for times less active than lidocaine: hNav1.2
T1 construct: expressed in transfected cells; host or cells: CHO-K1 (ATCC CCL-61)
Excerpt: (§1) To test whether 2-H can act by blocking VGNaCs, the PatchXpress 7000A was used. Mammalian CHO (Chinese hamster ovary) transfected with ion hNav1.2 and hNav1.6 channels cDNAs (SCN2A and SCN8A genes) were exposed to 2-H under both tonic and phasic conditions. The mammalian CHO-K1 epithelial embryonic cell line (ATCC number CCL-61) from Cricetulus griseus was obtained from ATCC, Manassas, VA. CHO-K1 cells were transfected with either hNav1.2 or hNav1.6 channel cDNA (SCN2A and SCN8A genes, respectively) and were exposed to 2-H under both tonic and phasic conditions.
(§2) The effects of 2-H were evaluated on hNav1.2 at 0.73, 1.46, 2.19, and 2.92 mg/mL and on hNav1.6 channels at 0.1, 0.36, 0.73, and 1.46 mg/mL, with each concentration tested in at least six cells (n = 6). Cells were exposed to each concentration of 2-H and measurements of the inward current were obtained within the first 3 min of exposure. […] Since the PatchXpress has open cell chambers where the testing occurs, there is no way to hermetically seal the experiment.
(§3) Based on this analysis, we estimated the IC50.

hNav1.6 channels = target: T2, hNav1.6 channels (Homo sapiens, UniProt Q9UQD0); assay: Patch-clamp (PatchXpress 7000A) on transfected CHO cells, hNav1.6; type: cell-based; settings: for IC50: CHO cells, n = 6, mean ± SEM, 2-H exposure limited to 3 min, read-out: hNav1.6 IC50 (converted); for times less active than lidocaine: hNav1.6
T2 construct: expressed in transfected cells; host or cells: CHO-K1 (ATCC CCL-61)
Excerpt: as §1, §2, §3

T2 sequence (Q9UQD0 whole entry): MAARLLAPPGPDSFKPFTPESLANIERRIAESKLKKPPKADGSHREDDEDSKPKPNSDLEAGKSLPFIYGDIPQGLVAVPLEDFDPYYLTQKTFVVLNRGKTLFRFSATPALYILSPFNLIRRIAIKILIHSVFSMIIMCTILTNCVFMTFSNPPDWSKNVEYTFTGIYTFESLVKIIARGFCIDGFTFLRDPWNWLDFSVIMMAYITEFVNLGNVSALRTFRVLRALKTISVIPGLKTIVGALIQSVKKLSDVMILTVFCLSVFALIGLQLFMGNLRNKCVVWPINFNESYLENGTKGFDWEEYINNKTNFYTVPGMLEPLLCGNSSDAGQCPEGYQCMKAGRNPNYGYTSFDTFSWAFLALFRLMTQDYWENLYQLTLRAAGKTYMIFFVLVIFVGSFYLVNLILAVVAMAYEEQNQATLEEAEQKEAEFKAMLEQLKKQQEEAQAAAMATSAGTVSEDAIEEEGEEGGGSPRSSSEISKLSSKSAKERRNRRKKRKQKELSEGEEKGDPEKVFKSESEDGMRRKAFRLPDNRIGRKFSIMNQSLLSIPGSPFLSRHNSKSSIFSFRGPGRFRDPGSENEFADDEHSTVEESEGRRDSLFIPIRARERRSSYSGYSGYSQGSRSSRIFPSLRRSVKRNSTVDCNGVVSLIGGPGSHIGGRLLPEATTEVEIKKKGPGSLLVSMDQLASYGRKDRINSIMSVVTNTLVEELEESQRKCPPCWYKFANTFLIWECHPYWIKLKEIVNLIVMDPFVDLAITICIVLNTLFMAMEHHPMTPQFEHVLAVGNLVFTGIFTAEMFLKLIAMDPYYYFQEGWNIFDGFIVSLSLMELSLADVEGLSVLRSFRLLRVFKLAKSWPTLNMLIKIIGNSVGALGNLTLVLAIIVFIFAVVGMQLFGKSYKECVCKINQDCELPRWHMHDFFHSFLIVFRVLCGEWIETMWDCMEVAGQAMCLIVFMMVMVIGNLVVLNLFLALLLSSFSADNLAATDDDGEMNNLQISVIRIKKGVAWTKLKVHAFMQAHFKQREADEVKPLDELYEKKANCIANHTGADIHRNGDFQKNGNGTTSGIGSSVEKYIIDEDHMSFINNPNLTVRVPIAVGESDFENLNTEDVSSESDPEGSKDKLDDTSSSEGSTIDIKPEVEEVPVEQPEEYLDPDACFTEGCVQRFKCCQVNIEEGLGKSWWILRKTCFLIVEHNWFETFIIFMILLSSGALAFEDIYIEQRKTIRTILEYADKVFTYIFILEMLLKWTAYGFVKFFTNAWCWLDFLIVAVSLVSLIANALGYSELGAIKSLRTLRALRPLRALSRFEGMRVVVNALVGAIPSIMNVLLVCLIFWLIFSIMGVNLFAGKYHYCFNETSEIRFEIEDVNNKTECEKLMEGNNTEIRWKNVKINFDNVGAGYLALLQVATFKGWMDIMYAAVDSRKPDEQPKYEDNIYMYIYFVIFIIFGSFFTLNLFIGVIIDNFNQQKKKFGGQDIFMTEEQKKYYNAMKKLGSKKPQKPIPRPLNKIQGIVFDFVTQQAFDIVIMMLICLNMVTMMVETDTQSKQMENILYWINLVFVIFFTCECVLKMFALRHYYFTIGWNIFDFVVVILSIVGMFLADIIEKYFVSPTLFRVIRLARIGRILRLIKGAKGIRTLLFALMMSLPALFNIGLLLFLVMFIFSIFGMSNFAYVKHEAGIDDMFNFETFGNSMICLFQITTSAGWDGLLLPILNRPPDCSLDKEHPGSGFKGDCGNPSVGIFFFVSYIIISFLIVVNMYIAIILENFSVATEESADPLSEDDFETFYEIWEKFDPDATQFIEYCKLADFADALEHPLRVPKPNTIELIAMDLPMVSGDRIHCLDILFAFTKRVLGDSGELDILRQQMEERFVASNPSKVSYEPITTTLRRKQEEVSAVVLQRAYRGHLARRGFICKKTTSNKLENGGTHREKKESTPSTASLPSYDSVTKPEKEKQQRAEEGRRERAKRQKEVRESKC
T1 sequence (Q99250 whole entry): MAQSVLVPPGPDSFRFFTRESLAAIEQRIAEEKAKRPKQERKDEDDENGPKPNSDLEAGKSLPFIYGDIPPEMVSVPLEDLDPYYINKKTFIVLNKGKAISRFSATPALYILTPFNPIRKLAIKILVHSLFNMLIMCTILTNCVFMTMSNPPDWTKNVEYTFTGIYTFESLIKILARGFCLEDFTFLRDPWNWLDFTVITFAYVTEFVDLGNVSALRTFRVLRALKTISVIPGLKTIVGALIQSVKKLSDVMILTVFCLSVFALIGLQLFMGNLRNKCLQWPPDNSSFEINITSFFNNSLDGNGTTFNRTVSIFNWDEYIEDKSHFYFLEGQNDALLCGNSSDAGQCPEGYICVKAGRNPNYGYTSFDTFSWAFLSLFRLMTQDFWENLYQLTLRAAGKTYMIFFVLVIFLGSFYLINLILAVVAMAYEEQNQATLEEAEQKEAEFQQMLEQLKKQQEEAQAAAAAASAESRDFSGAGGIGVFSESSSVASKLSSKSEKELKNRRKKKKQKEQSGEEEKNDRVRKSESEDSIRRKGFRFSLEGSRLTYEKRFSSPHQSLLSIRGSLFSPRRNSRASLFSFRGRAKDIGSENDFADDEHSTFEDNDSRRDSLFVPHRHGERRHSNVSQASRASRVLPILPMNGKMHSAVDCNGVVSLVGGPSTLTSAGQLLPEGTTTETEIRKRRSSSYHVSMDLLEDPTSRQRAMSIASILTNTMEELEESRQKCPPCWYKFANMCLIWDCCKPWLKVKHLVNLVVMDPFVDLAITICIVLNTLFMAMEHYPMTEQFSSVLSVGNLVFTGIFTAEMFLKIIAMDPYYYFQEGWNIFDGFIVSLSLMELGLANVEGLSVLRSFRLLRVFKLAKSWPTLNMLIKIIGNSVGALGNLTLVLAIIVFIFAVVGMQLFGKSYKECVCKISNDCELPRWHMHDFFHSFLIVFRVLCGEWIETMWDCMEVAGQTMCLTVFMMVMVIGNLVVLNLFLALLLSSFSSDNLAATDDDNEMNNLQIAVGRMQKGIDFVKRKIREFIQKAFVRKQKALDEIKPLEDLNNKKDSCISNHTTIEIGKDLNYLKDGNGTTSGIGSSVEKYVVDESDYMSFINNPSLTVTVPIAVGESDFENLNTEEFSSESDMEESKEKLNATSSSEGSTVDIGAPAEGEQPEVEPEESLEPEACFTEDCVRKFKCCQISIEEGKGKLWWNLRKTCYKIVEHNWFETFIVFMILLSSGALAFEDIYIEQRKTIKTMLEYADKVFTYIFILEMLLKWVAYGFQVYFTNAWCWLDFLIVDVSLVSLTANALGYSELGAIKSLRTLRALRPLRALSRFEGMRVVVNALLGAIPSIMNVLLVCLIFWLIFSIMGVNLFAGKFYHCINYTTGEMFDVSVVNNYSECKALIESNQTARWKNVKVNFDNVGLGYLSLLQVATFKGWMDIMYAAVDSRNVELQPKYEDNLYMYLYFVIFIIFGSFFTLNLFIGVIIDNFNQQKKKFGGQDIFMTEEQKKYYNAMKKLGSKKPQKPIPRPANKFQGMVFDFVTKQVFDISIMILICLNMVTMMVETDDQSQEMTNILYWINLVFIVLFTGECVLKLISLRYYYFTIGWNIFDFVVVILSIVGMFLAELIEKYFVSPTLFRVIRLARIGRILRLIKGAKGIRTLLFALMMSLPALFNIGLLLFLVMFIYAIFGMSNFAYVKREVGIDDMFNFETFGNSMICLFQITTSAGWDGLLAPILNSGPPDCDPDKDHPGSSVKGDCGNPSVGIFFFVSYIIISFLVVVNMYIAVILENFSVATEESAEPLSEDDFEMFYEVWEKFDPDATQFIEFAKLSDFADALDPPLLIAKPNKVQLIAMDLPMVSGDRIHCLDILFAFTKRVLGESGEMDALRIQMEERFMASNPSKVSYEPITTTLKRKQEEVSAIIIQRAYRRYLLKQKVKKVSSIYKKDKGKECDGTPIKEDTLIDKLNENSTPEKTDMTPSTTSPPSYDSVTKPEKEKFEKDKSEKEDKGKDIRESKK

Compound: CCCCCC(C)=O [2-H, 2-heptanone]
- low concentration easily detectable by honeybees (honeybees): 4.049 µg/mL
- 2-H detected in fully-recovered WML (wax moth larvae (WML)): no 2-H
- IC50 (hNav1.2 channels; Phasic Experiment): 6.57 mM
- IC50 (hNav1.2 channels; Tonic Experiment): 9.02 mM
- times less active than lidocaine (hNav1.2 channels; phasic experiments): 7.50 times
- times less active than lidocaine (hNav1.2 channels; tonic experiments): 3.97 times
- IC50 (hNav1.6 channels; Phasic Experiment): 4.64 mM
- IC50 (hNav1.6 channels; Tonic Experiment): 7.18 mM
- times less active than lidocaine (hNav1.6 channels; phasic experiments): 7.57 times
- times less active than lidocaine (hNav1.6 channels; tonic experiments): 2.82 times
